ChEMBL document CHEMBL2401727, “Searching for new antiarrhythmic agents: evaluation of meta-hydroxymexiletine enantiomers” (Eur J Med Chem, 2013)

Assays:
Ileum [1] = assay: Relaxtant activity in guinea pig K+-depolarized ileum longitudinal smooth muscle assessed as inhibition of calcium-induced contraction at 10^-4 M relative to control; assay type: functional; settings: Cavia porcellus
Aorta [2] = assay: Vasorelaxant activity in guinea pig K+-depolarized aortic strip assessed as inhibition of calcium-induced contraction at 5 X 10^-5 M relative to control; assay type: functional; settings: Cavia porcellus
[3] = Negative chronotropic activity in guinea pig spontaneously beating right atria assessed as decrease in atrial rate at 10^-5 M relative to control; assay type: functional, Cavia porcellus, Cardiac atrium; design: scale not given: the % may be the effect or the level left
Left cardiac atrium [4] = assay: Negative inotropic activity in guinea pig left atria assessed as decrease of 1 Hz current-induced developed tension; assay type: functional; settings: Cavia porcellus
Left cardiac atrium [5] = assay: Negative inotropic activity in guinea pig left atria assessed as decrease of 1 Hz current-induced developed tension at 10^-6 M relative to control; assay type: functional, Cavia porcellus; design: scale not given: the % may be the effect or the level left
Heart [6] = assay: Antiarrhythmic activity in guinea pig left atria assessed as increase of threshold of 1 Hz alternating current-induced arrhythmia at 10^-6 M measured every 30 mins relative to control; assay type: functional, Cavia porcellus
Heart [7] = assay: Antiarrhythmic activity in guinea pig left atria assessed as increase of threshold of 1 Hz alternating current-induced arrhythmia at 1 Hz measured every 30 mins; assay type: functional, tissue-based; settings: Cavia porcellus, 0.5 h
Ileum [8] = assay: Relaxtant activity in guinea pig K+-depolarized ileum longitudinal smooth muscle assessed as inhibition of calcium-induced contraction; assay type: functional, tissue-based; settings: Cavia porcellus
Aorta [9] = assay: Vasorelaxant activity in guinea pig K+-depolarized aortic strip assessed as inhibition of calcium-induced contraction at 10^-4 M relative to control; assay type: functional; settings: Cavia porcellus
Left cardiac atrium [10] = assay: Negative inotropic activity in guinea pig left atria assessed as decrease of 1 Hz current-induced developed tension at 5 X 10^-5 M relative to control; assay type: functional, Cavia porcellus; design: scale not given: the % may be the effect or the level left
Heart [11] = assay: Antiarrhythmic activity in guinea pig left atria assessed as increase of threshold of 1 Hz alternating current-induced arrhythmia at 10^-4 M measured every 30 mins relative to control; assay type: functional, Cavia porcellus
[12] = Elimination half life in human; settings: in vivo

EC50 (Left cardiac atrium [4]) [µM]	IC50 (Ileum [8]) [µM]	half-life [12] [h]	Structure (SMILES)	inhibition at 100 µM (Ileum [1]) [%]	inhibition at 50 µM (Aorta [2]) [%]	Activity [3] [%]	Activity (Left cardiac atrium [5]) [%]	%max (Heart [6]) [%]	EC50 (Heart [7]) [µM]	inhibition at 100 µM (Aorta [9]) [%]	Activity (Left cardiac atrium [10]) [%]	%max (Heart [11]) [%]
0.025	–	–	Cc1ccc(O)c(C)c1OC[C@@H](C)N	47	1	34	89	66	0.56	–	–	–
0.12	13.6	–	Cc1ccc(O)c(C)c1OC[C@H](C)N	75	–	16	–	–	–	4	93	13
–	25.8	–	Cc1ccc(O)c(C)c1OCC(C)N (racemic)	51	–	–	–	–	–	–	–	–
–	8.52	10	Cc1cccc(C)c1OCC(C)N (centres undefined) [MEXILETINE]	81	–	–	–	–	–	–	–	–
